Where a SMILES comes first, the peptide text is derived from it.
B1: rLC: lipocortin prepared using Escherichia coli according to the method of Wallner, et al. (protein, UniProt P04083 2-346, looked up)
Annexin A1: AMVSEFLKQAWFIENEEQEYVQTVKSSKGGPGSAVSPYPTFNPSSDVAALHKAIMVKGVDEATIIDILTKRNNAQRQQIKAAYLQETGKPLDETLKKALTGHLEEVVLALLKTPAQFDADELRAAMKGLGTDEDTLIEILASRTNKEIRDINRVYREELKRDLAKDITSDTSGDFRNALLSLAKGDRSEDFGVNEDLADSDARALYEAGERRKGTDVNVFNTILTTRSYPQLRRVFQKYTKYSKHDMNKVLDLELKGDIEKCLTAIVKCATSKPAFFAEKLHQAMKGVGTRHKALIRIMVSRSEIDMNDIKAFYQKMYGISLCQAILDETKGDYEKILVALCGGN
modifications: recombinant, E. coli

Molecular target: T1, porcine pancreas PLA2 (Sus scrofa, UniProt P00592)
T1 construct: purchased Sigma Chemical Co. P6534; host or cells: porcine pancreas
T1 sequence (P00592 23-146): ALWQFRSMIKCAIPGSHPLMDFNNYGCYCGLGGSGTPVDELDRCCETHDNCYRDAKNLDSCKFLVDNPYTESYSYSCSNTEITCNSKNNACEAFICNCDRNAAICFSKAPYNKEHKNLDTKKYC
Assay: PLA2-inhibiting activity (release of [1-14C] arachidonic acid from labelled phosphatidylcholine)
Assay type: biochemical
Details: for Inhibition ratio (Inhibition rate of test compound/Inhibition rate of Compound (IV)): Amount of sample: 100 mg, relative to Compound (IV) = 1.00
Experimental: A test compound was dissolved in 280 μl of 0.1M Tris-hydrochloride buffer (pH 8.8) containing 10 mM calcium chloride. To the solution was added a solution of 20 ng of porcine pancreas PLA2 (Sigma Chemical Co., catalog No. P6534) in 10 μl of the buffer having the same composition as above, followed by incubation at 37° C. for 10 minutes. To the resulting mixture was added a solution of 0.1 μCi of α-palmitoyl-β[1-^14 C] arachidonylphosphatidylcholine (54 μCi/μmol, NEN Research Products Co.) in 10 μl of the same buffer as above wherein micelles were formed, followed by incubation at 37° C. for 10 minutes. Then, 3 ml of a Dale reagent solution [2-propanol :n-heptane :1M sulfuric acid=40:10:1 v/v mixture; Methods in Enzymology 14, 167 (1969)] was added to stop the reaction, and 1.5 ml of n-heptane and 1 ml of water were added, followed by shaking. Radioactivity of the free [1-^14 C] arachidonic acid extracted to the heptane layer was measured. The value of this specific radioactivity is referred to as "a". Further, "b" and "c" refer to the specific radioactivity of the heptane layer obtained by adding the same amount of the buffer in place of the test compound solution and that of the heptane layer obtained by adding the same amount of the buffer in place of the test compound and PLA2, respectively. The inhibition rate (x) was calculated by the following equation: [formula]

Molecule | Inhibition ratio (Inhibition rate of test compound/Inhibition rate of Compound (IV)) | further results
CC[C@H](C)[C@H](N)C(=O)N[C@@H](CCCCN)C(=O)N[C@@H](C)C(=O)N[C@@H](C)C(=O)N[C@@H](Cc1ccc(O)cc1)C(=O)N[C@@H](CC(C)C)C(=O)N[C@@H](CCC(N)=O)C(=O)N[C@@H](CCC(=O)O)C(=O)N[C@H](C(=O)NCC(=O)N[C@@H](CCCCN)C(=O)N1CCC[C@H]1C(=O)N[C@@H](CC(C)C)C(=O)N[C@@H](CC(=O)O)C(=O)N[C@@H](CCC(=O)O)C(=O)N[C@H](C(=O)N[C@@H](CC(C)C)C(=O)N[C@@H](CCCCN)C(=O)N[C@@H](CCCCN)C(=O)N[C@@H](C)C(=O)N[C@@H](CC(C)C)C(=O)N[C@H](C(=O)NCC(=O)N[C@@H](Cc1c[nH]cn1)C(=O)N[C@@H](CC(C)C)C(=O)N[C@@H](CCC(=O)O)C(=O)O)[C@@H](C)O)[C@@H](C)O)[C@@H](C)O [III] (H-IKAAYLQETGKPLDETLKKALTGHLE-OH) | 0.20 | –
CC(C)C[C@H](NC(=O)[C@H](C)NC(=O)[C@H](CCCCN)NC(=O)[C@H](CCCCN)NC(=O)[C@H](CC(C)C)NC(=O)[C@@H](NC(=O)[C@H](CCC(=O)O)NC(=O)[C@H](CC(=O)O)NC(=O)[C@H](CC(C)C)NC(=O)[C@@H]1CCCN1C(=O)[C@@H](N)CCCCN)[C@@H](C)O)C(=O)N[C@H](C(=O)NCC(=O)N[C@@H](Cc1c[nH]cn1)C(=O)N[C@@H](CC(C)C)C(=O)N[C@@H](CCC(=O)O)C(=O)O)[C@@H](C)O [IV] (H-KPLDETLKKALTGHLE-OH) | 1.00 | PLA2-inhibiting activity (in words): medium
CC[C@H](C)[C@H](NC(=O)[C@H](C)NC(=O)[C@@H](NC(=O)[C@H](CC(C)C)NC(=O)[C@H](CS)NC(=O)[C@@H](N)CCCCN)[C@@H](C)O)C(=O)N[C@H](C(=O)N[C@@H](CCCCN)C(=O)N[C@@H](CS)C(=O)N[C@@H](C)C(=O)N[C@H](C(=O)N[C@@H](CO)C(=O)N[C@@H](CCCCN)C(=O)N1CCC[C@H]1C(=O)N[C@@H](C)C(=O)O)[C@@H](C)O)C(C)C [VIII] (H-KCLTAIVKCATSKPA-OH; N-terminus and C-terminus assumed) | 1.06 | –
CC[C@H](C)[C@H](N)C(=O)N[C@@H](CCC(=O)O)C(=O)N[C@H](C(=O)N[C@@H](CC(C)C)C(=O)N[C@@H](C)C(=O)N[C@@H](CO)C(=O)N[C@@H](CCCNC(=N)N)C(=O)N[C@H](C(=O)N[C@@H](CC(N)=O)C(=O)N[C@@H](CCCCN)C(=O)N[C@@H](CCC(=O)O)C(=O)N[C@H](C(=O)N[C@@H](CCCNC(=N)N)C(=O)N[C@@H](CC(=O)O)C(=O)N[C@H](C(=O)O)[C@@H](C)CC)[C@@H](C)CC)[C@@H](C)O)[C@@H](C)CC [V] (H-IEILASRTNKEIRDI-OH) | 0.56 | –
CC[C@H](C)[C@H](N)C(=O)N[C@@H](CCCCN)C(=O)N[C@@H](C)C(=O)N[C@@H](Cc1ccccc1)C(=O)N[C@@H](Cc1ccc(O)cc1)C(=O)N[C@@H](CCC(N)=O)C(=O)N[C@@H](CCCCN)C(=O)N[C@@H](CCSC)C(=O)N[C@@H](Cc1ccc(O)cc1)C(=O)NCC(=O)N[C@H](C(=O)N[C@@H](CO)C(=O)N[C@@H](CC(C)C)C(=O)N[C@@H](CS)C(=O)N[C@@H](CCC(N)=O)C(=O)N[C@@H](C)C(=O)O)[C@@H](C)CC [XII] (H-IKAFYQKMYGISLCQA-OH) | – | IC50 compared with that of lipocortin (in words): almost equal to that of lipocortin; IC50 (read-out: IC50 (concentration required for inhibiting the PLA2 activity by 50%) (converted)): 1070 nM
CC[C@H](C)[C@H](NC(=O)[C@H](CCCNC(=N)N)NC(=O)[C@@H](NC(=O)[C@H](CC(C)C)NC(=O)[C@H](C)NC(=O)[C@H](CCCCN)NC(=O)[C@H](Cc1c[nH]cn1)NC(=O)[C@H](CCCNC(=N)N)NC(=O)[C@@H](NC(=O)CNC(=O)[C@@H](NC(=O)CN)C(C)C)[C@@H](C)O)[C@@H](C)CC)C(=O)N[C@@H](CCSC)C(=O)N[C@H](C(=O)N[C@@H](CO)C(=O)N[C@@H](CCCNC(=N)N)C(=O)O)C(C)C [X] (H-GVGTRHKALIRIMVSR-OH; N-terminus and C-terminus assumed) | 1.19 | –
B1 | – | IC50 (concentration required for inhibiting the PLA2 activity by 50%): 1.5 µg/mL

From patent US4895931A, “Phospholipase A2 -inhibiting peptides” (Kyowa Hakko Kogyo Co., Ltd., priority 1988, dated 1990)
